Eight compounds from US8822413B2, “Bifunctional hormone having alpha-MSH activity and natriuretic peptide activity and uses thereof” (Theratechnologies Inc., priority 2007, dated 2014) can be followed below.

Bridge positions count the residues as written; N and C are the ends. Square brackets hold non-standard residues; d marks the D form. Peptide text beside a SMILES is read from it. Nle = CCCC[C@H](N)C(=O)O

In one assay the target is T1, ANP receptor (Sus scrofa, UniProt F1SFW3).
T1 construct: ANP receptor-expressing LLC-PK1 cells; endogenous in cells; host or cells: LLC-PK1 cells
T1 sequence (F1SFW3 29-1057): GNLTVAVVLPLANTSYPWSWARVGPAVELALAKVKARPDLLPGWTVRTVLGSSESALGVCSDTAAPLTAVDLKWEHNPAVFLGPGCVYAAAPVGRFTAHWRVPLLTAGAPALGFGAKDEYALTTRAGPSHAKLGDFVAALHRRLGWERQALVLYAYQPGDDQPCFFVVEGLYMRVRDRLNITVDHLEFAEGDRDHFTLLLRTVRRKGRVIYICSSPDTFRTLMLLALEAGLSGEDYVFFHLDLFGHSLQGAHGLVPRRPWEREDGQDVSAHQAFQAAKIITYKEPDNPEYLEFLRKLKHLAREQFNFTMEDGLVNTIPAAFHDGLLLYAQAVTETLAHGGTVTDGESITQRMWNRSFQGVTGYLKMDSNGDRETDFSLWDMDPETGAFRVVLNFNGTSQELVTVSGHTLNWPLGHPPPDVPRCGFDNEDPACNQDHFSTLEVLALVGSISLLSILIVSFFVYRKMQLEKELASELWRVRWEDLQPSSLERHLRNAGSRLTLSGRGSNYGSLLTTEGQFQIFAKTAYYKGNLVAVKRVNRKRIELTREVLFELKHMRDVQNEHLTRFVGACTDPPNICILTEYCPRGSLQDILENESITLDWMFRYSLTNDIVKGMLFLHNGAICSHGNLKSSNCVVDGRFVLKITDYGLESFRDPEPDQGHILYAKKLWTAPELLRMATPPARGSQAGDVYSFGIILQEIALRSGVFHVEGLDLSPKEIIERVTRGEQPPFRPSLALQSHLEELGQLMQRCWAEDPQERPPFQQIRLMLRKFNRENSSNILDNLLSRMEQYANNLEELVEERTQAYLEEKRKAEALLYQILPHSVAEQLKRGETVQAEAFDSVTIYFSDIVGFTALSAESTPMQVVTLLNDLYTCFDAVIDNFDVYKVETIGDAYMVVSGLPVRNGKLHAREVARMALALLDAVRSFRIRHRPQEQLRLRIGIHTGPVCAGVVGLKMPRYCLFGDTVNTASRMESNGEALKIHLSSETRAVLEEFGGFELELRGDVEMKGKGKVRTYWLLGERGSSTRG
Put plainly: cGMP production in ANP receptor-expressing LLC-PK1 cells. Format: cell-based. The settings on record: 30 min stimulation, 10^-6M through 10^-12M. The method, then:
The bifunctional hormone was tested on ANP receptor-expressing LLC-PK1 cells and on MCR1 receptor-expressing B16-F1 cells. Both cell types were cultured 24 hours before the stimulation, in 96-well plates, at a concentration of 1.0×10^5 cells/ml. Before stimulation, cells were starved 2 hours in DPBS only and incubated 10 min in assay buffer (DPBS containing 20 mM HEPES, 0.1% BSA and 500 μM IBMX). The dose response curve of the bifunctional hormone was done for 30 minutes with concentrations of 10^−6M through 10^−12M. Supernatant was collected and cAMP (B16-F1) or cGMP (LLC-PK1) was measured with a radiolabeled kit from GE Healthcare Company.
One may read the EC50 as the midpoint of the concentration-response curve. Read a high EC50 as lower potency in that assay. `CCCC[C@@H]1NC(=O)[C@H](CCCNC(=N)N)NC(=O)CNC(=O)CNC(=O)[C@H](Cc2ccccc2)NC(=O)[C@H](Cc2c[nH]cn2)NC(=O)[C@@H](NC(=O)[C@@H](N)CCCC)CCC(=O)NCCCC[C@@H](C(=O)N[C@@H](Cc2ccc(O)cc2)C(=O)N[C@@H](CCCNC(=N)N)C(=O)N[C@@H](Cc2c[nH]cn2)C(=O)N[C@H](Cc2ccccc2)C(=O)N[C@@H](CCCNC(=N)N)C(=O)N[C@@H](Cc2c[nH]c3ccccc23)C(N)=O)NC(=O)[C@H](CO)NC(=O)[C@H]([C@@H](C)CC)NC(=O)[C@H](CCCNC(=N)N)NC(=O)[C@H](CC(=O)O)NC1=O` [SEQ ID NO: 29, Nle-[E-H-F-G-G-R-Nle-D-R-I-S-K]-Y-R-H-f-R-W-NH2] (H-[Nle]EHFGGR[Nle]DRISKYRH[dF]RW-NH2; lactam 2-13) had an EC50 of 1430 nM.
`CC[C@H](C)[C@@H]1NC(=O)[C@H](CCCNC(=N)N)NC(=O)[C@H](CC(=O)O)NC(=O)[C@H](CCSC)NC(=O)[C@H](CCCNC(=N)N)NC(=O)CNC(=O)CNC(=O)[C@H](Cc2ccccc2)NC(=O)[C@@H](NC(=O)[C@H](CO)NC(=O)[C@H](CO)NC(=O)[C@H](CCCNC(=N)N)NC(=O)[C@H](CCCNC(=N)N)NC(=O)[C@H](CC(C)C)NC(=O)[C@@H](N)CO)CSSC[C@@H](C(=O)N[C@@H](CC(N)=O)C(=O)N[C@@H](CO)C(=O)N[C@@H](Cc2ccccc2)C(=O)N[C@@H](CCCNC(=N)N)C(=O)N[C@@H](Cc2ccc(O)cc2)C(=O)N[C@@H](Cc2c[nH]cn2)C(=O)N[C@H](Cc2ccccc2)C(=O)N[C@@H](CCCNC(=N)N)C(=O)N[C@@H](Cc2c[nH]c3ccccc23)C(N)=O)NC(=O)CNC(=O)[C@H](CC(C)C)NC(=O)CNC(=O)[C@H](CO)NC(=O)[C@H](CCC(N)=O)NC(=O)[C@H](C)NC(=O)CNC1=O` [SEQ ID NO: 40, S-L-R-R-S-S-[C-F-G-G-R-M-D-R-I-G-A-Q-S-G-L-G-C]-N-S-F-R-Y-H-f-R-W-NH2] yielded an EC50 of 7000 nM.

The assay is the same for the next values; noted with them: 30 min stimulation, 10^-6M through 10^-12M, NR = No response detected.
Turning to `CC[C@H](C)[C@@H]1NC(=O)[C@H](CCCNC(=N)N)NC(=O)[C@H](CC(=O)O)NC(=O)[C@H](CCSC)NC(=O)[C@H](CCCNC(=N)N)NC(=O)CNC(=O)CNC(=O)[C@H](Cc2ccccc2)NC(=O)[C@H](Cc2c[nH]cn2)NC(=O)[C@@H](NC(=O)[C@H](CCSC)NC(=O)[C@@H]2CCCN2C(=O)[C@H](CCCCN)NC(=O)CNC(=O)[C@H](Cc2c[nH]c3ccccc23)NC(=O)[C@H](CCCNC(=N)N)NC(=O)[C@@H](Cc2ccccc2)NC(=O)[C@H](Cc2c[nH]cn2)NC(C)=O)CSSC[C@@H](C(=O)N[C@@H](Cc2ccc(O)cc2)C(=O)N[C@@H](CCCNC(=N)N)C(N)=O)NC(=O)[C@H](CO)NC1=O` [SEQ ID NO: 31, Ac-H-f-R-W-G-K-P-M-[C-H-F-G-G-R-M-D-R-I-S-C]-Y-R-NH2] (Ac-H[dF]RWGKPMCHFGGRMDRISCYR-NH2; disulfide 9-20), the EC50 was 74.3 nM.
Take `CCCC[C@@H]1NC(=O)[C@H](CCCNC(=N)N)NC(=O)CNC(=O)CNC(=O)[C@H](Cc2ccccc2)NC(=O)[C@H](Cc2c[nH]cn2)NC(=O)[C@@H](NC(=O)[C@H](CCCC)NC(=O)[C@@H]2CCCN2C(=O)[C@H](CCCCN)NC(=O)CNC(=O)[C@H](Cc2c[nH]c3ccccc23)NC(=O)[C@H](CCCNC(=N)N)NC(=O)[C@@H](Cc2ccccc2)NC(=O)[C@H](Cc2c[nH]cn2)NC(C)=O)CSSC[C@@H](C(=O)N[C@@H](Cc2ccc(O)cc2)C(=O)N[C@@H](CCCNC(=N)N)C(N)=O)NC(=O)[C@H](CO)NC(=O)[C@H]([C@@H](C)CC)NC(=O)[C@H](CCCNC(=N)N)NC(=O)[C@H](CC(=O)O)NC1=O` [SEQ ID NO: 34, Ac-H-f-R-W-G-K-P-Nle-[C-H-F-G-G-R-Nle-D-R-I-S-C]-Y-R-NH2] (Ac-H[dF]RWGKP[Nle]CHFGGR[Nle]DRISCYR-NH2; disulfide 9-20): it took 132 nM to reach a half-maximal effect (EC50).
Same read-out and setting: the figure for `CCCC[C@@H]1NC(=O)[C@H](CCCNC(=N)N)NC(=O)CNC(=O)CNC(=O)[C@H](Cc2ccccc2)NC(=O)[C@@H](NC(=O)[C@H](CCCC)NC(=O)[C@@H]2CCCN2C(=O)[C@H](CCCCN)NC(=O)CNC(=O)[C@H](Cc2c[nH]c3ccccc23)NC(=O)[C@H](CCCNC(=N)N)NC(=O)[C@@H](Cc2ccccc2)NC(=O)[C@H](Cc2c[nH]cn2)NC(C)=O)CSSC[C@@H](C(=O)N[C@@H](CC(N)=O)C(=O)N[C@@H](CO)C(=O)N[C@@H](Cc2ccccc2)C(=O)N[C@@H](CCCNC(=N)N)C(=O)N[C@@H](Cc2ccc(O)cc2)C(N)=O)NC(=O)CNC(=O)[C@H](CC(C)C)NC(=O)CNC(=O)[C@H](CO)NC(=O)[C@H](CCC(N)=O)NC(=O)[C@H](C)NC(=O)CNC(=O)[C@H]([C@@H](C)CC)NC(=O)[C@H](CCCNC(=N)N)NC(=O)[C@H](CC(=O)O)NC1=O` [SEQ ID NO: 35, Ac-H-f-R-W-G-K-P-Nle-[C-F-G-G-R-Nle-D-R-I-G-A-Q-S-G-L-G-C]-N-S-F-R-Y-NH2] (Ac-H[dF]RWGKP[Nle]CFGGR[Nle]DRIGAQSGLGCNSFRY-NH2; disulfide 9-25) is 216 nM; for `CC[C@H](C)[C@@H]1NC(=O)[C@H](CCCNC(=N)N)NC(=O)[C@H](CC(=O)O)NC(=O)[C@H](CCSC)NC(=O)[C@H](CCCNC(=N)N)NC(=O)CNC(=O)CNC(=O)[C@H](Cc2ccccc2)NC(=O)[C@@H](NC(=O)[C@H](CO)NC(=O)[C@H](CO)NC(=O)[C@H](CCCNC(=N)N)NC(=O)[C@H](CCCNC(=N)N)NC(=O)CNC(=O)[C@H](Cc2c[nH]c3ccccc23)NC(=O)[C@H](CCCNC(=N)N)NC(=O)[C@H](Cc2ccccc2)NC(=O)[C@H](Cc2c[nH]cn2)NC(=O)[C@H](CCC(=O)O)NC(=O)[C@@H](N)CCSC)CSSC[C@@H](C(=O)N[C@@H](CC(N)=O)C(=O)N[C@@H](CO)C(=O)N[C@@H](Cc2ccccc2)C(=O)N[C@@H](CCCNC(=N)N)C(=O)N[C@@H](Cc2ccc(O)cc2)C(N)=O)NC(=O)CNC(=O)[C@H](CC(C)C)NC(=O)CNC(=O)[C@H](CO)NC(=O)[C@H](CCC(N)=O)NC(=O)[C@H](C)NC(=O)CNC1=O` [SEQ ID NO: 36, M-E-H-F-R-W-G-R-R-S-S-[C-F-G-G-R-M-D-R-I-G-A-Q-S-G-L-G-C]-N-S-F-R-Y-NH2] (H-MEHFRWGRRSSCFGGRMDRIGAQSGLGCNSFRY-NH2; disulfide 12-28) it is 33.1 nM; for `CC[C@H](C)[C@@H]1NC(=O)[C@H](CCCNC(=N)N)NC(=O)[C@H](CC(=O)O)NC(=O)[C@H](CCSC)NC(=O)[C@H](CCCNC(=N)N)NC(=O)CNC(=O)CNC(=O)[C@H](Cc2ccccc2)NC(=O)[C@@H](NC(=O)[C@H](CO)NC(=O)[C@H](CO)NC(=O)[C@H](CCCNC(=N)N)NC(=O)[C@H](CCCNC(=N)N)NC(=O)CNC(=O)[C@H](Cc2c[nH]c3ccccc23)NC(=O)[C@H](CCCNC(=N)N)NC(=O)[C@H](Cc2ccccc2)NC(=O)[C@H](Cc2c[nH]cn2)NC(C)=O)CSSC[C@@H](C(=O)N[C@@H](CC(N)=O)C(=O)N[C@@H](CO)C(=O)N[C@@H](Cc2ccccc2)C(=O)N[C@@H](CCCNC(=N)N)C(=O)N[C@@H](Cc2ccc(O)cc2)C(N)=O)NC(=O)CNC(=O)[C@H](CC(C)C)NC(=O)CNC(=O)[C@H](CO)NC(=O)[C@H](CCC(N)=O)NC(=O)[C@H](C)NC(=O)CNC1=O` [SEQ ID NO: 38, Ac-H-F-R-W-G-R-R-S-S-[C-F-G-G-R-M-D-R-I-G-A-Q-S-G-L-G-C]-N-S-F-R-Y-NH2] (Ac-HFRWGRRSSCFGGRMDRIGAQSGLGCNSFRY-NH2; disulfide 10-26) it is 6.9 nM.
On to `CC[C@H](C)[C@@H]1NC(=O)[C@H](CCCNC(=N)N)NC(=O)[C@H](CC(=O)O)NC(=O)[C@H](CCSC)NC(=O)[C@H](CCCNC(=N)N)NC(=O)CNC(=O)CNC(=O)[C@H](Cc2ccccc2)NC(=O)[C@@H](NC(=O)[C@H](CO)NC(=O)[C@H](CO)NC(=O)[C@H](CCCNC(=N)N)NC(=O)[C@H](CCCNC(=N)N)NC(=O)CNC(=O)[C@H](Cc2c[nH]c3ccccc23)NC(=O)[C@H](CCCNC(=N)N)NC(=O)[C@@H](Cc2ccccc2)NC(=O)[C@H](Cc2c[nH]cn2)NC(C)=O)CSSC[C@@H](C(=O)N[C@@H](CC(N)=O)C(=O)N[C@@H](CO)C(=O)N[C@@H](Cc2ccccc2)C(=O)N[C@@H](CCCNC(=N)N)C(=O)N[C@@H](Cc2ccc(O)cc2)C(N)=O)NC(=O)CNC(=O)[C@H](CC(C)C)NC(=O)CNC(=O)[C@H](CO)NC(=O)[C@H](CCC(N)=O)NC(=O)[C@H](C)NC(=O)CNC1=O` [SEQ ID NO: 39, Ac-H-f-R-W-G-R-R-S-S-[C-F-G-G-R-M-D-R-I-G-A-Q-S-G-L-G-C]-N-S-F-R-Y-NH2] (Ac-H[dF]RWGRRSSCFGGRMDRIGAQSGLGCNSFRY-NH2; disulfide 10-26), for which the EC50 came out at 52.1 nM.
